Measurements: patent publication US6362230B1, “Sulphonamide derivatives” (Eli Lilly and Company, priority 1998, dated 2002)

Biological target: T1, human GluR4B receptor (Homo sapiens, UniProt P48058)
T1 construct: expressed in transfected cells
Experiment: potentiation of agonist-induced excitability of human GluR4B receptor expressed in HEK 293 cells
Format: cell-based
Source text: The ability of compounds of formula I or formula XVII to potentiate glutamate receptor-mediated response may be determined using fluorescent calcium indicator dyes (Molecular Probes, Eugene, Oreg., Fluo-3) and by measuring glutamate-evoked […] of calcium into GluR4 transfected HEK293 cells, as described in more detail below.
In one test, 96 well plates containing confluent monolayers of HEK cells stably expressing human GluR4B (obtained as described in European Patent Application Publication Number EP-A1-583917) are prepared. The tissue culture medium in the wells is then discarded, and the wells are each washed once with 200 μl of buffer (glucose, 10 mM, sodium chloride, 138 mM, magnesium chloride, 1 mM, potassium chloride, 5 mM, calcium chloride, 5 mM, N-[2-hydroxyethyl]piperazine-N-[2-ethanesulfonic acid], 10 mM, to pH 7.1 to 7.3). […]
Each test is then performed as follows. […] A second fluorescent reading is taken after 5 minutes incubation. 15 μl of 400 μM glutamate solution is then added to each well (final glutamate concentration 100 μM), and a third reading is taken. The activities of test compounds and cyclothiazide solutions are determined by subtracting the second from the third reading (fluorescence due to addition of glutamate in the presence or absence of test compound or cyclothiazide) and are expressed relative to enhance fluorescence produced by 100 μM cyclothiazide.

T1 sequence (P48058 21-902): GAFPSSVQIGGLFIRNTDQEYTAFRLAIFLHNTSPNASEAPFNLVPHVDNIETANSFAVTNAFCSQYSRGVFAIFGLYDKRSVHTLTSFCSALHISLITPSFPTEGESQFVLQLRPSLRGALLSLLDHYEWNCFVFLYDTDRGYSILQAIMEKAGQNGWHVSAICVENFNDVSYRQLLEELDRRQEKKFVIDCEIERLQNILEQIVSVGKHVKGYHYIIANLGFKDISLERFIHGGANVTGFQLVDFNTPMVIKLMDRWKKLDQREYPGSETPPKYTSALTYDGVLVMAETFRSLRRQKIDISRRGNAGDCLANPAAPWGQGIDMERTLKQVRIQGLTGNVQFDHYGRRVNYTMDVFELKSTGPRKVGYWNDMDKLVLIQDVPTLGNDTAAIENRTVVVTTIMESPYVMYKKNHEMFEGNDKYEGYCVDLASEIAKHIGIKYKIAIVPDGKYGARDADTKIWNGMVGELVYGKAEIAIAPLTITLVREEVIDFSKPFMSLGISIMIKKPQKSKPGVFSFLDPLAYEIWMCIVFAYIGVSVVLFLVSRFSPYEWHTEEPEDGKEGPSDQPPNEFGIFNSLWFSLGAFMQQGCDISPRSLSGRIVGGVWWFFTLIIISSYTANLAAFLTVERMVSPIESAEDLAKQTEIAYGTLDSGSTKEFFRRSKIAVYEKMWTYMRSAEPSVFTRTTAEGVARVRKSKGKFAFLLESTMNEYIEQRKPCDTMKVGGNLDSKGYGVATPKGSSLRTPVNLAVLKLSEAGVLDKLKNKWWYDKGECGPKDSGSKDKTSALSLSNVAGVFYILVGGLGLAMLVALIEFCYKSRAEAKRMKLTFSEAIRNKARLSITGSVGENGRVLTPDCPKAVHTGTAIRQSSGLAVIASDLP

NS(=O)(=O)c1cc2c(cc1Cl)NC(C1CC3C=CC1C3)NS2(=O)=O (stereo not shown) [cyclothiazide]
potentiation of agonist-induced excitability of human GluR4B receptor: potentiate agonist-induced excitability
